Measurements published in patent US20240067668A1, “HETEROARYL DERIVATIVE COMPOUND AND USE THEREOF” (VORONOI INC., priority 2020, published 2024).

What was measured:
EGFR Del19/T790M/C797S = EGFR Del19/T790M/C797S (Homo sapiens, UniProt P00533, C797S/T790M, form not given); assay: Enzyme IC50, EGFR Del19/T790M/C797S; type: biochemical
[1] = tested on: BaF3-EGFR (Del19/T790M/C797S) cells; assay: Inhibitory activity on Ba/F3 cell proliferation (CellTiter-Glo, 72 hours); type: cell-based; details: Ba/F3 cells expressing EGFR Del19/T790M/C797S
In short: (§1)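 Ba/F3 cells expressing wild-type EGFR or EGFR Del19/T790M/C797S, 3×10^3 per well, exposed 72 h at 37 °C to compound at 12 threefold dilutions, 0.00005-10 μM final. Viability by CellTiter-Glo 2.0; GI50 derived from growth relative to DMSO-treated cells.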

BaF3-EGFR (WT) cells = assay: as above; type: cell-based; details: Ba/F3 cells expressing EGFR WT
In short: as §1

Chain of EGFR Del19/T790M/C797S (P00533 25-1210 T790M/C797S, form open): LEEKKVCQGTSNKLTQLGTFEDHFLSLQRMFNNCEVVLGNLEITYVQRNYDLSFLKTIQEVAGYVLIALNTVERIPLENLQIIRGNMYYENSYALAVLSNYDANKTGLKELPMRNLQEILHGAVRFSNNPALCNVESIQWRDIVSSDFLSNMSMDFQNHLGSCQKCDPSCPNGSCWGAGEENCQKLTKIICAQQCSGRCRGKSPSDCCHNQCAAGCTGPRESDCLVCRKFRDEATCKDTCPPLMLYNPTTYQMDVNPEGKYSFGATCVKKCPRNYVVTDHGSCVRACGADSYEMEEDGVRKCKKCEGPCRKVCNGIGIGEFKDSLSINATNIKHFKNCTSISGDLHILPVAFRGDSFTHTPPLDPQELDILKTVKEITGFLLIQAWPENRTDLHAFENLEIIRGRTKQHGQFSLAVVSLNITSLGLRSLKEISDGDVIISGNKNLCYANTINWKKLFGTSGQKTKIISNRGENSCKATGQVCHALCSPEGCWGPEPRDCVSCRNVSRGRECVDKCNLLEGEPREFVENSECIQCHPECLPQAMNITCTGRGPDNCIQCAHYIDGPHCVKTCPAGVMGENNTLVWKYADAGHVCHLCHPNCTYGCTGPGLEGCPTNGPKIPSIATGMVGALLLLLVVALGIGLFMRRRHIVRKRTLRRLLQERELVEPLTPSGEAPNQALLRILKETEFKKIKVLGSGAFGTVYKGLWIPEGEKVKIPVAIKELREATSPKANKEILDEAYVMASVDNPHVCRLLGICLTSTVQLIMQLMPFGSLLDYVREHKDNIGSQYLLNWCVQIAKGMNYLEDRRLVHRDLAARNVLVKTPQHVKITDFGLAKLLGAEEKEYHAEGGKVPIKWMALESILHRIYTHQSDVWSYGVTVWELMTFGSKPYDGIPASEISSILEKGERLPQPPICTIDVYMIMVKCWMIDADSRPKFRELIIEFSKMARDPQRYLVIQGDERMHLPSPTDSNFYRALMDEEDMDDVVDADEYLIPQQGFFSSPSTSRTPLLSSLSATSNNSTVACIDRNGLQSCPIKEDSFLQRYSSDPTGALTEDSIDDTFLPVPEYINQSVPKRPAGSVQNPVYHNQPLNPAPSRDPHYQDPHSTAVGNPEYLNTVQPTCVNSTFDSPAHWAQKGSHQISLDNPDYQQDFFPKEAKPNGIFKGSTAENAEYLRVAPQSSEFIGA

SMILES	IC50 (EGFR Del19/T790M/C797S) [µM]	GI50 [1] [µM]	GI50 (BaF3-EGFR (WT) cells) [µM]
CCc1cc(Nc2nc(Nc3ccc4nccnc4c3P(C)(C)=O)c3cc[nH]c3n2)c(OC)cc1N1CCC(N2CCN(C)CC2)CC1 [Example 55, (6-((2-((5-ethyl-2-methoxy-4-(4-(4-methylpiperazin-1-yl)piperidin-1-yl)phenyl)amino)-7H-pyrrolo[2,3-d]pyrimidin-4-yl)amino)quinoxalin-5-yl)dimethyl-phosphine oxide]	≤ 0.05	≤ 0.05	> 0.1
COc1cc(N2CCC(N3CCN(C)CC3)CC2)c(Cl)cc1Nc1nc(Nc2ccc3nccnc3c2P(C)(C)=O)c2cc[nH]c2n1 [Example 56, (6-((2-((5-chloro-2-methoxy-4-(4-(4-methylpiperazin-1-yl)piperidin-1-yl)phenyl)amino)-7H-pyrrolo[2,3-d]pyrimidin-4-yl)amino)quinoxalin-5-yl)dimethyl-phosphine oxide]	≤ 0.05	≤ 0.05	> 0.1
COc1cc(N2CCC(N3CCN(C4CC4)CC3)CC2)c(C)cc1Nc1nc(Nc2ccc3nccnc3c2P(C)(C)=O)c2cc[nH]c2n1 [Example 60, (6-((2-((4-(4-(4-cyclopropyl-piperazin-1-yl)piperidin-1-yl)-2-methoxy-5-methylphenyl)amino)-7H-pyrrolo[2,3-d]pyrimidin-4-yl)amino)quinoxalin-5-yl)dimethyl-phosphine oxide]	≤ 0.05	≤ 0.05	> 0.1
CCN1CCN(C2CCN(c3cc(OC)c(Nc4nc(Nc5ccc6nccnc6c5P(C)(C)=O)c5cc[nH]c5n4)cc3C)CC2)CC1 [Example 61, (6-((2-((4-(4-(4-ethylpiperazin-1-yl)piperidin-1-yl)-2-methoxy-5-methylphenyl)amino)-7H-pyrrolo[2,3-d]pyrimidin-4-yl)amino)quinoxalin-5-yl)dimethyl-phosphine oxide]	≤ 0.05	0.05 to 0.1	> 0.1
COc1cc(N2CCC(N3CCN(C(C)C)CC3)CC2)c(C)cc1Nc1nc(Nc2ccc3nccnc3c2P(C)(C)=O)c2cc[nH]c2n1 [Example 62, (6-((2-((4-(4-(4-isopropyl-piperazin-1-yl)piperidin-1-yl)-2-methoxy-5-methylphenyl)amino)-7H-pyrrolo[2,3-d]pyrimidin-4-yl)amino)quinoxalin-5-yl)dimethyl-phosphine oxide]	≤ 0.05	0.05 to 0.1	> 0.1
COc1ccc(C)cc1Nc1nc(Nc2ccc3nccnc3c2P(C)(C)=O)c2cc[nH]c2n1 [Example 68, (6-((2-((2-methoxy-5-methylphenyl)amino)-7H-pyrrolo[2,3-d]pyrimidin-4-yl)amino)quinoxalin-5-yl)dimethyl-phosphine oxide]	≤ 0.05	> 0.1	> 0.1
CCOc1ccc(C(F)(F)F)cc1Nc1nc(Nc2ccc3nccnc3c2P(C)(C)=O)c2cc[nH]c2n1 [Example 69, (6-((2-((2-ethoxy-5-(trifluoromethyl)phenyl)amino)-7H-pyrrolo[2,3-d]pyrimidin-4-yl)amino)quinoxalin-5-yl)dimethyl-phosphine oxide]	> 0.1	> 0.1	> 0.1
COc1cc(N2CCN(C)CC2)c(-c2ccncc2)cc1Nc1nc(Nc2ccc3nccnc3c2P(C)(C)=O)c2cc[nH]c2n1 [Example 70, (6-((2-((2-methoxy-4-(4-methylpiperazin-1-yl)-5-(pyridin-4-yl)phenyl)amino)-7H-pyrrolo[2,3-d]pyrimidin-4-yl)amino)quinoxalin-5-yl)dimethyl-phosphine oxide]	≤ 0.05	> 0.1	> 0.1
COc1cc(N2CCN(C)CC2)c(-c2cnc3ccccc3c2)cc1Nc1nc(Nc2ccc3nccnc3c2P(C)(C)=O)c2cc[nH]c2n1 [Example 71, (6-((2-((2-methoxy-4-(4-methylpiperazin-1-yl)-5-(quinolin-3-yl)phenyl)amino)-7H-pyrrolo[2,3-d]pyrimidin-4-yl)amino)quinoxalin-5-yl)dimethyl-phosphine oxide]	≤ 0.05	> 0.1	> 0.1
COc1cc(N2CCN(C)CC2)c(-c2ccccc2)cc1Nc1nc(Nc2ccc3nccnc3c2P(C)(C)=O)c2cc[nH]c2n1 [Example 72, (6-((2-((4-methoxy-6-(4-methylpiperazin-1-yl)-[1,1′-biphenyl]-3-yl)amino)-7H-pyrrolo[2,3-d]pyrimidin-4-yl)amino)quinoxalin-5-yl)dimethyl-phosphine oxide]	≤ 0.05	> 0.1	> 0.1
C=CC(=O)Nc1cc(Nc2nc(Nc3ccc4nccnc4c3P(C)(C)=O)c3cc[nH]c3n2)c(OC)cc1N1CCN(C)CC1 [Example 73, N-(5-((4-((5-(dimethyl-phosphoryl)quinoxalin-6-yl)amino)-7H-pyrrolo[2,3-d]pyrimidin-2-yl)amino)-4-methoxy-2-(4-methylpiperazin-1-yl)phenyl) acrylamide]	≤ 0.05	> 0.1	0.05 to 0.1
COc1cc(N2CCN(C)CC2)c(-c2ccoc2)cc1Nc1nc(Nc2ccc3nccnc3c2P(C)(C)=O)c2cc[nH]c2n1 [Example 75, (6-((2-((5-(furan-3-yl)-2-methoxy-4-(4-methylpiperazin-1-yl)phenyl)amino)-7H-pyrrolo[2,3-d]pyrimidin-4-yl)amino)quinoxalin-5-yl)dimethyl-phosphine oxide]	≤ 0.05	> 0.1	> 0.1
COc1cc(N2CCN(C)CC2)c(-c2ccsc2)cc1Nc1nc(Nc2ccc3nccnc3c2P(C)(C)=O)c2cc[nH]c2n1 [Example 76, (6-((2-((2-methoxy-4-(4-methylpiperazin-1-yl)-5-(thiophen-3-yl)phenyl)amino)-7H-pyrrolo[2,3-d]pyrimidin-4-yl)amino)quinoxalin-5-yl)dimethyl-phosphine oxide]	≤ 0.05	> 0.1	> 0.1
COc1cc(N2CCN(C)CC2)c(C#N)cc1Nc1nc(Nc2ccc3nccnc3c2P(C)(C)=O)c2cc[nH]c2n1 [Example 81, 5-((4-((5-(dimethyl-phosphoryl)quinoxalin-6-yl)amino)-7H-pyrrolo[2,3-d]pyrimidin-2-yl)amino)-4-methoxy-2-(4-methylpiperazin-1-yl)benzonitrile]	≤ 0.05	> 0.1	> 0.1
C=Cc1cc(Nc2nc(Nc3ccc4nccnc4c3P(C)(C)=O)c3cc[nH]c3n2)c(OC)cc1N1CCN(C)CC1 [Example 82, (6-((2-((2-methoxy-4-(4-methylpiperazin-1-yl)-5-vinylphenyl)amino)-7H-pyrrolo[2,3-d]pyrimidin-4-yl)amino)quinoxalin-5-yl)dimethyl-phosphine oxide]	≤ 0.05	> 0.1	> 0.1
COc1cc(N2CCN(C)CC2)c(C2CC2)cc1Nc1nc(Nc2ccc3nccnc3c2P(C)(C)=O)c2cc[nH]c2n1 [Example 83, (6-((2-((5-cyclopropyl-2-methoxy-4-(4-methylpiperazin-1-yl)phenyl)amino)-7H-pyrrolo[2,3-d]pyrimidin-4-yl)amino)quinoxalin-5-yl)dimethyl-phosphine oxide]	≤ 0.05	> 0.1	> 0.1
COc1cc(N2CCN(C)CC2)c(-c2cnn(C)c2)cc1Nc1nc(Nc2cnc3ccccc3c2P(C)(C)=O)c2cc[nH]c2n1 [Example 89, (3-((2-((2-methoxy-5-(1-methyl-1H-pyrazol-4-yl)-4-(4-methylpiperazin-1-yl)phenyl)amino)-7H-pyrrolo[2,3-d]pyrimidin-4-yl)amino)quinolin-4-yl)dimethyl-phosphine oxide]	≤ 0.05	> 0.1	> 0.1
COc1cc(N2CCC(N3CCN(C)CC3)CC2)c(C)cc1Nc1nc(Nc2ccc3nccnc3c2P(C)(C)=O)c2nc[nH]c2n1 [Example 104, (6-((2-((2-methoxy-5-methyl-4-(4-(4-methylpiperazin-1-yl)piperidin-1-yl)phenyl)amino)-9H-purin-6-yl)amino)quinoxalin-5-yl)dimethyl-phosphine oxide]	≤ 0.05	> 0.1	> 0.1
COc1cc(N2CCC(N3CCN(C)CC3)CC2)c(-c2cnn(C)c2)cc1Nc1nc(Nc2ccc3nccnc3c2P(C)(C)=O)c2nc[nH]c2n1 [Example 105, (6-((2-((2-methoxy-5-(1-methyl-1H-pyrazol-4-yl)-4-(4-(4-methylpiperazin-1-yl)piperidin-1-yl)phenyl)amino)-9H-purin-6-yl)amino)quinoxalin-5-yl)dimethyl-phosphine oxide]	≤ 0.05	> 0.1	> 0.1
Cc1cn(-c2cc(Nc3nc(Nc4ccc5nccnc5c4P(C)(C)=O)c4cc[nH]c4n3)cc(C(F)(F)F)c2)cn1 [Example 106, dimethyl (6-((2-((3-(4-methyl-1H-imidazol-1-yl)-5-(trifluoromethyl)phenyl)amino)-7H-pyrrolo[2,3-d]pyrimidin-4-yl)amino)quinoxalin-5-yl)phosphine oxide]	≤ 0.05	> 0.1	> 0.1
COc1cc(N2CCC3(CCN(C(=O)C4(F)CC4)CC3)CC2)c(-c2cnn(C)c2)cc1Nc1nc(Nc2ccc3nccnc3c2P(C)(C)=O)c2cc[nH]c2n1 [Example 111, (9-(4-((4-((5-(dimethyl-phosphoryl)quinoxalin-6-yl)amino)-7H-pyrrolo[2,3-d]pyrimidin-2-yl)amino)-5-methoxy-2-(1-methyl-1H-pyrazol-4-yl)phenyl)-3,9-diazaspiro[5.5]undecan-3-yl)(1-fluorocyclo-propyl) methanone]	> 0.1	≤ 0.05	> 0.1
